From patent publication US9492510B2, “Composition and method for inhibiting tumor cell growth” (St. Jude Children's Research Hospital, priority 2006, dated 2016)
“Also recorded” adds a separate entry of the source. Read-outs that look alike come from different tables or passages of the source.

Key:
[1] = target: T1, hiCE (human intestinal carboxylesterase) (Homo sapiens, UniProt O00748); experiment: Kinetics of CPT-11 hydrolysis by purified hiCE; format: biochemical
T1 sequence (O00748 27-559): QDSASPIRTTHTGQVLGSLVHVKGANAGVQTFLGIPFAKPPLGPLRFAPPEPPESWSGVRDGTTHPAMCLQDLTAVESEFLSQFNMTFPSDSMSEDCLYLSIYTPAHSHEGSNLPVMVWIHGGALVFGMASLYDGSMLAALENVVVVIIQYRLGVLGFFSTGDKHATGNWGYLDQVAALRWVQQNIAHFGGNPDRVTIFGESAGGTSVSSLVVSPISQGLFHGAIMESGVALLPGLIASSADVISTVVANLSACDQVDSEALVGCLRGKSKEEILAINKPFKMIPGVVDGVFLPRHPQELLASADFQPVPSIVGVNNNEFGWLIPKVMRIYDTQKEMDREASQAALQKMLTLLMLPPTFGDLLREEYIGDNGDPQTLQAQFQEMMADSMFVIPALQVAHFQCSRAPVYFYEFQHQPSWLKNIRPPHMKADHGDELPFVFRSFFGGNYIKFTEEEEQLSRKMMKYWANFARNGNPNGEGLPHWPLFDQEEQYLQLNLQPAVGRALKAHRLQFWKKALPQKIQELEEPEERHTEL
Description: (§1) These experiments determined the Km, Vmax, kcat and kcat/Km values for the different enzymes.
(§2) Protein Purification. […] For hiCE, an alternative purification procedure was developed using DEAE chromatography and elution with a pH/salt gradient.
(§3) Determination of Kinetic Parameters for Substrate Hydrolysis.

U373MG cells [2] = experiment: Growth inhibition by CPT-11 of U373MG cells; format: cell-based, human
Description: Experiments were also performed in human brain tumor cells (U373MG) where the growth of the cells was examined in cells that expressed the mutant form of the human CE enzyme.
(§4) Experiments were also performed to determine whether cells expressing a secreted form of hCElm6 (SEQ ID NO:16) produced media that had CE activity.
(§5) Transfection of Cell Lines. Transient transfection of Cos7 cells was achieved by electroporation (Potter, et al. 1998. Cancer Res. 52:2646-2651). For the generation of stable cell lines, cDNAs were ligated into pIRESneo and U373MG cells were electroporated under similar conditions. Transfectants were selected in media containing 400 μg/ml of G418. Since the CE cDNA was linked via an internal ribosome entry sequence (IRES) to the neomycin gene, selection of individual G418-resistant clones was not necessary.
(§6) Construction of Adenovirus. Replication-deficient adenovirus expressing hCElm6 or rCE were constructed using standard protocols (Wierdl, et al. 2001. Cancer Res. 61:5078-5082). Multiplicity of infection (moi) was defined as the number of plaques produced in 1×10^6 293 cells in a total volume of 1 ml of media after incubation with virus for 1 hour.
(§7) Growth Inhibition Assays.

COS7 cells = experiment: Growth inhibition of transiently transfected Cos7 cells by CPT-11; format: cell-based, African green monkey; conditions: Chlorocebus sabaeus
Description: as §5, §7

SK-N-As cells = experiment: Growth inhibition of adenovirus-transduced SK-N-As cells by CPT-11; format: cell-based; conditions: Homo sapiens
Description: as §6, §7

U373MG cells [3] = experiment: Growth inhibition of U373MG cells expressing intracellular or secreted hCE1mut6 by CPT-11; format: cell-based; conditions: Homo sapiens, U373 MG, read-out: IC50 for CPT-11
Description: as §4, §7

Rh30 cells = experiment: Growth inhibition of adenovirus-transduced Rh30 cells by CPT-11; format: cell-based; conditions: Homo sapiens
Description: as §6, §7

[4] = mice, within the first hour of dosing; cited from earlier work
[5] = tested on: rCE (rabbit liver carboxylesterase), wild type, SEQ ID NO:2; conditions: CPT-11 hydrolysis; cited from earlier work
[6] = patients; cited from earlier work
[7] = tested on: hCE1 (human liver carboxylesterase), wild type, SEQ ID NO:1; conditions: CPT-11 hydrolysis; cited from earlier work
[8] = CPT-11 administered to humans; cited from earlier work
[9] = target: T2, hCE1 variant hCE1m6 (hCE1mut6; L362M, M363L, K459R, F448Y, Q449R, L358I, S364G, Q362 insertion), SEQ ID NO:3 (Homo sapiens, UniProt P23141, F449Y/K460R/L358I/L363M/M364L/Q450R/S365G); experiment: Kinetics of CPT-11 hydrolysis by purified hCE1m6; format: biochemical
T2 sequence (P23141 18-567 L358I/L363M/M364L/S365G/F449Y/Q450R/K460R): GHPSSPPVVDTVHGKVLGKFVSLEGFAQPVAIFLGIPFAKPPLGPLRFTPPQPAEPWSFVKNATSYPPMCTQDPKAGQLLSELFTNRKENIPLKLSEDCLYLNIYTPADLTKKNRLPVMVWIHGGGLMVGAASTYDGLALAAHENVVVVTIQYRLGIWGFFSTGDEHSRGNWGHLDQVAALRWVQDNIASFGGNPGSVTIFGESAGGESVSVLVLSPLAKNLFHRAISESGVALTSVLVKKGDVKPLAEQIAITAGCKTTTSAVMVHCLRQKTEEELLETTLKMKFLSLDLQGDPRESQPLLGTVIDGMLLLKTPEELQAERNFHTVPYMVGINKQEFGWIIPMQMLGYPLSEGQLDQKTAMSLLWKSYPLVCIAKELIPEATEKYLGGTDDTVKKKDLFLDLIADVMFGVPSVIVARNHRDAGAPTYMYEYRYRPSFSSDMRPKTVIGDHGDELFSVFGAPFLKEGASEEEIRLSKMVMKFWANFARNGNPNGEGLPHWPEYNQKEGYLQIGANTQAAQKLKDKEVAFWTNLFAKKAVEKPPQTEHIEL
Description: as §1, §2, §3

topoisomerase I = conditions: cited from earlier work
[10] = CE activity (o-NPA) in human tumor cell lines expressing CE after plasmid transfection or adenoviral transduction; format: biochemical
Description: […], it was observed that expression of hiCE following plasmid-mediated transfection was frequently lower than that seen with rCE or […]. […] Since expression of the transgene from this expression vector is co-regulated with the neo gene via an IRES sequence, selection with similar concentrations of G418 should result in cell lines that express approximately equal levels of recombinant protein. However, the average levels of CE activity in U373hiCE, U373hCE1 and U373hCE1m6 cells were 287.6±76.6, 1077.1±77.5, and 466.5±52.6 nmoles/min/mg, respectively.
Carboxylesterase Assays. CE activity was determined using a spectrophotometric assay with 3 mM o-nitrophenyl acetate (o-NPA) as a substrate (Potter, et al. 1998. Cancer Res. 52:2646-2651; Wierdl, et al. 2001. Cancer Res. 61:5078-5082; Beaufay, et al. 1974. J. Cell Biol. 61:188-200). Data were expressed as nmoles o-nitrophenol produced per minute per milligram of protein. To correct for differences in CE expression within transfected cells, the enzyme activity values were corrected for the level of immuno-reactive CE protein as determined from western analyses.
as §5, with “necessary. Routinely, whole cell sonicates obtained from these pooled populations of cells contained 200-500 nmoles/min/mg of CE activity.” for “necessary.”
as §6

[11] = Kinetic parameters for CPT-11 hydrolysis by purified recombinant CEs; format: biochemical; conditions: hCE1 and rCE values rest on cited data
Description: To directly compare the abilities of the mammalian CEs to hydrolyze CPT-11, a series of biochemical studies were carried out using the purified proteins in vitro. These experiments determined the Km, Vmax, kcat and kcat/Km values for the different enzymes.
as §2, §3

[12] = substrate: CCc1c2c(nc3ccc(OC(=O)N4CCC(N5CCCCC5)CC4)cc13)-c1cc3c(c(=O)n1C2)COC(=O)[C@]3(O)CC; experiment: purified protein, by the assay type; conditions: other: CPT-11 hydrolysis, hiCE
[13] = In vitro stability of purified CE stored at room temperature in 50 mM Hepes; format: physicochemical; conditions: purified protein in 50 mM Hepes pH7.4, room temperature
Description: Enzymes were aliquoted in 50 mM Hepes, stored at 20° C. and CE activities were determined at various time intervals, up to 11 weeks. Data are expressed as the amount of active CE remaining as compared to day 0.
Therefore, the loss of CE activity was evaluated in preparations of these proteins, as well as hCElm6 that had been stored at room temperature. In these studies, purified protein was aliquoted in 50 mM Hepes pH7.4, and enzyme activity was determined over a period of 12 weeks.

CCc1c2c(nc3ccc(OC(=O)N4CCC(N5CCCCC5)CC4)cc13)-c1cc3c(c(=O)n1C2)COC(=O)[C@]3(O)CC [CPT-11, 7-ethyl-10-[4-(1-piperidino)-1-piperidino]carbonyloxycamptothecin]
Vmax [1]: 1.49 ± 0.04 nmol/min/mg | IC50 (U373MG cells [2]; Homo sapiens, U373 MG, read-out: CPT-11 IC50, U373IRES cells (pIRESneo, no enzyme expressed)): 24 µM | IC50 (COS7 cells; COS-7, read-out: IC50 (growth inhibition), cells expressing hCE1mut6): 12 to 20 µM | IC50 (COS7 cells; COS-7, read-out: IC50 (growth inhibition), cells expressing rCE): 12 to 20 µM | IC50 (COS7 cells; COS-7, read-out: IC50 (growth inhibition), cells expressing wild-type hCE1): 77.1 µM | IC50 (SK-N-As cells; read-out: CPT-11 IC50, AdCMVhCE1m6, hCE1m6): 0.5 µM | IC50 (SK-N-As cells; read-out: CPT-11 IC50, AdCMVrCE, rCE): 0.6 µM | IC50 (SK-N-As cells; read-out: CPT-11 IC50, AdVC, no enzyme): 31.7 µM | IC50 (SK-N-As cells; read-out: IC50, SK-N-As, transduced cells): 0.002 µM | IC50 (U373MG cells [3]): 7.08 µM | IC50 (Rh30 cells; Rh30, read-out: CPT-11 IC50, AdCMVhCE1m6, hCE1m6): 2 µM | IC50 (Rh30 cells; Rh30, read-out: CPT-11 IC50, AdCMVrCE, rCE): 3.4 µM | IC50 (Rh30 cells; Rh30, read-out: CPT-11 IC50, AdVC, no enzyme): 64.3 µM | IC50 (Rh30 cells; Rh30, read-out: IC50, Rh30, transduced cells): 0.0006 µM | fraction of CPT-11 hydrolyzed to SN-38 [4]: greater than 50% | Km [5]: 6.2 ± 0.63 µM | Vmax [5]: 18 ± 0.9 nmol/min/mg | dose-limiting toxicity [6]: myelosuppression and secretory diarrhea limit the amount of prodrug; also recorded: myelosuppression and secretory diarrhea limit the amount of drug | Km [7]: 82.8 ± 9.6 µM | Vmax [7]: 0.36 ± 0.017 nmol/min/mg | fraction of CPT-11 converted to SN-38 [8]: less than 5% | Vmax [9]: 2.11 ± 0.06 nmol/min/mg

CCc1c2c(nc3ccc(O)cc13)-c1cc3c(c(=O)n1C2)COC(=O)[C@]3(O)CC [SN-38, 7-ethyl-10-hydroxy-camptothecin]
inhibition of topoisomerase I (topoisomerase I): potent inhibitor of topoisomerase I

B1: hiCE (human intestinal carboxylesterase) (Homo sapiens) (protein)
chain: QDSASPIRTTHTGQVLGSLVHVKGANAGVQTFLGIPFAKPPLGPLRFAPPEPPESWSGVRDGTTHPAMCLQDLTAVESEFLSQFNMTFPSDSMSEDCLYLSIYTPAHSHEGSNLPVMVWIHGGALVFGMASLYDGSMLAALENVVVVIIQYRLGVLGFFSTGDKHATGNWGYLDQVAALRWVQQNIAHFGGNPDRVTIFGESAGGTSVSSLVVSPISQGLFHGAIMESGVALLPGLIASSADVISTVVANLSACDQVDSEALVGCLRGKSKEEILAINKPFKMIPGVVDGVFLPRHPQELLASADFQPVPSIVGVNNNEFGWLIPKVMRIYDTQKEMDREASQAALQKMLTLLMLPPTFGDLLREEYIGDNGDPQTLQAQFQEMMADSMFVIPALQVAHFQCSRAPVYFYEFQHQPSWLKNIRPPHMKADHGDELPFVFRSFFGGNYIKFTEEEEQLSRKMMKYWANFARNGNPNGEGLPHWPLFDQEEQYLQLNLQPAVGRALKAHRLQFWKKALPQKIQELEEPEERHTEL
sensitization of cells to CPT-11 (U373MG cells [2]; U373MG cells expressing the labelled enzyme): sensitized | average levels of CE activity ([10]; U373MG cells stably transfected with pIRESneo constructs, monitored over an extended time period): 287.6 ± 76.6 nmol/min/mg | CE Activity ([10]; ± SD, U373MG cells stably transfected (pIRESneo) expressing the enzyme): 408.2 ± 5.6 nmol/min/mg | Ratio kcat/Km as compared to hCE1 [11]: 91 | Km [12]: 3.35 ± 0.34 µM | time to loss of 50% of CE activity [13]: ~30 days
